Laboratory results published in patent publication US20120329985A1, “Optimal hydolysis conditions of soy protein to produce peptides with lipolysis-stimulating activity and their sequencing and use thereof” (TUNGHAI UNIVERSITY, priority 2011, published 2012).
Like-named read-outs stand apart in the source and are kept apart here. One block for each compound: values may come before it. Where a SMILES comes first, the peptide text is derived from it.

What was measured:
[1] = test system: gastrointestinal enzymes (pepsin, pancreatin); assay: Resistance of the synthetical peptides in the mimic gastrointestinal environment; details: pepsin 25:1, pH 2.0, 37° C., 4 hours; pancreatin 25:1, 4 hours
Experimental: (§2) Then adding pepsin with substrate-enzyme ratio at 25:1 and incubating for 4 hours is performed to mimic the environment in stomach. Following the incubation, the solution is neutralized by addition of 2N NaOH and heating some aliquot for 15 minutes to terminate the pepsin activity for freeze storage. The remainder is further incubated with pancreatin with substrate-enzyme ratio at 25:1 for 4 hours to mimic the intestinal environment. After termination of the enzyme activity by heating in boiled water and followed by cooling, the sample is freeze stored for the further analysis.
(§3) After temperature returned, the each frozen sample processed in the mimic gastrointestinal environment is centrifuged at 10,000×g for 40 minutes. After centrifugation, the supernatant is collected and filtrated through 0.22 μm filter, and added into the culture medium for 3T3-L1 adipocytes. On day 11 post-differentiation, the supernatant or cell extract are collected as the methods described in example 3 and example 7 for measuring the glycerol release and triglyceride residue in the adipocytes. The glycerol release and triglyceride residue in the adipocytes are calculated from the absorption excited by 500 and 520 nm wavelength.

[2] = test system: gastrointestinal enzymes (pepsin, pancreatin); details: pH 2
Experimental: as §2, §3

3T3-L1 adipocytes [3] = assay: Measurement of the triglyceride residue in 3T3-L1 adipocytes; type: cell-based; details: 4 ppm fractions and synthetical peptides (FIG. 23)
Experimental: (§1) The precursor cells of 3T3-L1 cell are purchased from Food Industry Research and Development Institute in Taiwan. The purchased precursor cells of 3T3-L1 adipocytes are cultured in 24-wells plate with 1×10^4 cells/well. The cells are cultured with DMEM (Dulbecco's Modified Eagle Medium) containing 10% FBS (Fetal bovine serum) at 37° C. in the incubator with 5% CO2, and refresh cultured medium every two days. While the 3T3-L1 cells are filled within the culture dish, the culture medium is changed to the differentiation medium (DM) for promoting adipocytes differentiation, which is defined as day 0 post-differentiation. The differentiation medium contains 1.74 μM insulin, […] dexamethasone (DEX) and 0.5 mM isobutyl-methylxanthine (IBMX). From day 2 post-differentiation, the culture medium is exchanged to DMEM with 1.74 μM insulin and refreshed every two days until day 8 post-differentiation. On day 8 post-differentiation, the precursor cells would differentiate into mature 3T3-L1 adipocytes.
On day 11, the cultured cells are washed with PBS and lysed by adding lysis buffer. The supernatant of cell lysis is collected after centrifugation at 13000 rpm for 10 minutes. 10 μL supernatant of cell lysis is mixed with 1 ml triglyceride detecting kit (TR213) and incubated at room-temperature for 5 minutes. After the incubation, the triglyceride residue in the adipocytes could be calculated according to absorption excited by 500 nm wavelength and shown in FIG. 6. In FIG. 6, control experiment is the cells without treatment of ISP hydrolysate or any fractions.

3T3-L1 adipocytes [4] = assay: Measurement of the glycerol released from 3T3-L1 adipocytes; type: cell-based; details: 4 ppm fractions and synthetical peptides (FIG. 22); control basal level 312.3
Experimental: as §1, with “adipocytes. […]” for “adipocytes.”
30 μL of the cultured medium is collected and mixed with detecting kit (GY105) to measure the glycerol release. After reaction at room-temperature for 5 minutes, the absorption excited by 520 nm wavelength is measured by spectrophotometer to calculate the glycerol released from adipocytes.

Bioactivity for lipolysis after gastrointestinal enzymes [1]: resistant
Compound: CC(C)C[C@H](NC(=O)[C@H](CC(C)C)NC(=O)[C@@H](N)CC(C)C)C(=O)O [Leu-Leu-Leu] (H-Leu-Leu-Leu-OH; N-terminus and C-terminus assumed)

Bioactivity for lipolysis after gastrointestinal enzymes [2]: resistant
Compound: CC(C)[C@H](N)C(=O)N[C@@H](Cc1c[nH]cn1)C(=O)N[C@H](C(=O)N[C@H](C(=O)O)C(C)C)C(C)C [Val-His-Val-Val] (H-VHVV-OH; N-terminus and C-terminus assumed)

Compound: Ile-Ile-Ile
Effect on triglyceride residue versus control (3T3-L1 adipocytes [3]): significantly reduce

Compound: Ile-Leu-Leu
Glycerol release (3T3-L1 adipocytes [4]): 540.81 nmol/mg protein | Effect on triglyceride residue versus control (3T3-L1 adipocytes [3]): significantly reduce | Triglyceride residue (3T3-L1 adipocytes [3]; control 3.2): 1.41 μmol/mg protein
